Measured values: patent publication EP0170168A2, “N,N,-diethyl, N'-aryl, N'-(dichlorfluormethylthio)sulfamide-microbiocides” (BAYER AG, priority 1984, dated 1986)

Assays:
[1] = Solubility in organic solvents for wood preservatives; assay type: physicochemical; settings: for Löslichkeit (%) in Shellsol AB: solvent Shellsol AB; for Löslichkeit (%) in Testbenzin: solvent Testbenzin
Source text: Löslichkeiten erfindungsgemäßer Wirkstoffe nach Beispiel 1 und 2 im Vergleich zum handelsüblichen Dichlofluanid in organischen Lösungsmitteln für Holzschutzmittel
(Testbenzin und Shellsol AB sind handelsübliche niedrigsiedende Kohlenwasserstoffe).

Coniophora puteana = assay: Toxic limit values on impregnated wood discs (method after Sutter), pine wood; assay type: cell-based; settings: Coniophora puteana (Kiefer)
Source text: (§1) Bestimmung der toxischen Grenzwerte (kg/m^3 Holz) der Wirkstoffe gemäß Beispiel 1 und 2 für Coniophora puteana bzw. Coriolus versicolor auf Kiefern- bzw. Buchenholz. Die Bestimmung der toxischen Grenzwerte erfolgt in Anlehnung an die von H.P. Sutter, Int. Biodeterioration Bulletin 14 (3), 1978, Seiten 95 bis 99, beschriebenen Methode.
(§2) Für die Tests werden jeweils frisch geschnittene dünne Stirnholzscheibchen (Größe 40 x 40 mm, Dicke etwa 2 mm) im Vakuum mit Lösungen unterschiedlich definierter Wirkstoffkonzentration getränkt. Die Menge des absorbierten Wirkstoffs in kg/m^3 Holz wird aus der Retention der Lösung (durch Einzelwägung der Holzproben vor und nach der Imprägnierung bestimmt), der Holzdichte und der Konzentration des Wirkstoffs in der verwendeten Imprägnierlösung errechnet.
(§3) Je 5 der 15 getrockneten Prüflinge einer Wirkstoffkonzentration werden dem Pilzangriff ohne Belastung ausgesetzt, 5 weitere Proben werden vorher im Windkanal (Windgeschwindigkeit: 1 + 0,1 m/sec; Temp.: 40 + 2°C) 4 Wochen lang belastet, 5 andere Prüflinge werden einer Wässerung in Anlehnung an DIN EN 84 unterzogen (14 Tage Lagerung in dest. Wasser bei 20°C, 9-maliger Wasserwechsel).
(§4) Für den mykologischen Test werden die Prüflinge nach Sterilisieren mit Propylenoxid einzeln auf das voll entwickelte Pilzmycel des Prüfpilzes auf Malzextraktagar in Petrischalen aufgelegt, durch Distanzhalter beträgt der Abstand zwischen Agaroberfläche und Probe ca. 5 mm. Nach 6wöchiger Lagerung bei 21-23°C wird der Zerstörungsgrad der Prüfling visuell beurteilt.
(§5) Als Grenzwerte der toxischen Wirkung werden die beiden Konzentrationen des Wirkstoffs in kg/m^3 Holz ermittelt, bei denen das Holz gerade noch und nicht mehr angegriffen wird.
(§6) In der folgenden Tabelle sind die Mittelwerte der Toxizitätsgrenzwerte für die erfindungsgemäßen Substanzen gemäß Beispiel 1 und 2 sowie für den bekannten Wirkstoff Dichlorfluonid für zwei Prüfpilze und zwei verschiedene Holzarten angegeben.
(§7) Mittlere Toxizitätsgrenzen (kg/m^3 Holz) von Wirkstoffen gemäß Beispiel 1 und 2 für holzzerstörende Pilze.

Coriolus versicolor = assay: Toxic limit values on impregnated wood discs (method after Sutter), beech wood; assay type: cell-based; settings: Coriolus versicolor (Buche)
Source text: as §1, §2, §3, §4, §5, §6, §7

[2] = nach Belüftung (wind tunnel 4 weeks, 40°C)
[3] = nach Wässerung (14 days in distilled water, 20°C)
[4] = ohne Belastung, 6 weeks at 21-23°C

Compound	Löslichkeit (%) in Shellsol AB [1]	Löslichkeit (%) in Testbenzin [1]	Mittlere Toxizitätsgrenzen (Coniophora puteana; [2])	Mittlere Toxizitätsgrenzen (Coniophora puteana; [3])	Mittlere Toxizitätsgrenzen (Coniophora puteana; [4])	Mittlere Toxizitätsgrenzen (Coriolus versicolor; [2])	Mittlere Toxizitätsgrenzen (Coriolus versicolor; [3])	Mittlere Toxizitätsgrenzen (Coriolus versicolor; [4])
CCN(CC)S(=O)(=O)N(SC(F)(Cl)Cl)c1ccccc1 [Beispiel 1, N,N-Diethyl-N'-phenyl-N'-(dichlorfluormethylthio)-sulfamid]	71%	16%	2,0 kg/m^3 Holz	0,8 kg/m^3 Holz	0,4 kg/m^3 Holz	2,7 kg/m^3 Holz	1,1 kg/m^3 Holz	0,6 kg/m^3 Holz
CCN(CC)S(=O)(=O)N(SC(F)(Cl)Cl)c1ccc(C)cc1 [Beispiel 2, N,N-Diethyl-N'-(p-tolyl)-N'-(dichlorfluormethylthio)-sulfamid]	67%	59%	–	–	0,7 kg/m^3 Holz	–	–	1,5 kg/m^3 Holz
CN(C)S(=O)(=O)N(SC(F)(Cl)Cl)c1ccccc1 [Dichlofluanid, N,N-Dimethyl-N'-phenyl-N'-(fluordichlormethylthio)-sulfamid, reference compound]	6%	1,2%	3,7 kg/m^3 Holz	2,4 kg/m^3 Holz	1,9 kg/m^3 Holz	3,5 kg/m^3 Holz	3,2 kg/m^3 Holz	2,5 kg/m^3 Holz
